Assay results: ChEMBL document CHEMBL3507680, “University of Dundee, Gates Library screen for HepG2 cell viability”

Assay: Human HepG2 cell viability assay in 384 well format
Type: toxicity, cell-based
Design: dose 125 nL, time 70.5 hour; cytotoxicity at 70.5 h: concentration not given beside the values
Conditions: HepG2 cells, read-out: Inhibition

Row | SMILES | cytotoxicity at 70.5 h [%]
1 | Cc1ccoc1C(=O)N1CC(C(=O)N2CCOCC2)C2(CCOCC2)C1 (stereo not given) | 15.4
2 | Cc1nnc(N2CCCC3(CN(Cc4nccn4C)CCO3)C2)o1 (stereo not given) | -0.85
3 | O=C(CN1CCc2onc(-c3ccccc3F)c2C1)NC1CC1 | -9.25
4 | CNC(=O)Cc1ccc(NC(=O)NC(C)C(C)C)cc1 (stereo not given) | -15.4
5 | COc1ccc(CC(=O)NC2CCc3nc(C)cn3C2)cc1 (stereo not given) | -7.41
6 | Cc1ccccc1CC1(CO)CCCN(c2ncccc2C#N)C1 (stereo not given) | -4.27
7 | CCNC(=O)c1ccc(CNCc2c(C)nn(C)c2N(C)C)cc1 | 24.8
8 | Cn1ccc(NC(=O)CN2CCN(C3CCCC3)C(=O)C2)n1 | -4.86
9 | CN1CCOC(CNCc2csc(C3CCCCC3)n2)C1 (stereo not given) | -13.3
10 | C[C@@H]1C[C@@H]2CCN(Cc3ccccn3)C[C@H]2O1 | -5.42
11 | COc1ccc(Cn2c(C3CCNCC3)cc3cccnc32)cc1 | 3.16
12 | CNC(=O)c1nnc2ccc(N3CCOCC3)cc2n1 | -4.03
13 | Cn1ccnc1CN1CCCC2(CCN(CC3CCCO3)CC2)C1 (stereo not given) | 4.14
14 | COc1c(NC(=O)N(C)CCOc2ccc(F)cc2)c(C)nn1C | 2.48
15 | CN(CCO)C[C@@H]1CN(C(=O)c2c(F)cccc2Cl)C[C@@H]1CO | -8.11
16 | CC(=O)NCCNC(=O)Nc1cccc(Cl)c1SC(F)F | -0.195
17 | CC(C)n1ncc2c1NC(=O)CSC2C(F)(F)F (stereo not given) | -21
18 | CN(C)[C@@H]1CO[C@H](CNC(=O)c2cccs2)[C@H]1O | -8.01
19 | CNS(=O)(=O)c1ccc(C(=O)NC2CCOc3ccccc32)o1 (stereo not given) | -1.45
20 | CC1CCCCN1C(=O)c1nc2c(n1C(C)C)CCN(C(=O)C1CC1)C2 (stereo not given) | -8.72
21 | COc1cccc(CNCc2c(C)nn(C)c2N(C)C)c1 | 0.816
22 | CNC(=O)c1cc2ccccc2n1C | 16.4
23 | CS(=O)(=O)N1C[C@H]2CCCN(Cc3ccsc3)[C@H]2C1 | 13.4
24 | CN(C)CCN(Cc1ccc(F)cc1)C(=O)c1ccn(C)c(=O)c1 | -5.2
25 | Cc1cc(CN2CCCC2Cn2cccn2)no1 (stereo not given) | -10.2
26 | CN1C(=O)c2ccc(NC(=O)CSc3ccc4c(c3)CCC4)cc2C1=O | -3.82
27 | Cc1ccc(N2CCCC(NCc3cccc4c3OCO4)C2)nn1 (stereo not given) | -0.527

Row | SMILES | cytotoxicity at 70.5 h [%]
28 | NC(=O)C1CN(Cc2c(O)ccc3oc4c(c23)CCCC4)CCO1 (stereo not given) | -5.87
29 | Cc1nc(N2CCOCC2)nc(C)c1NC(=O)c1ccco1 | 3.55
30 | CCCNC(=O)Cn1cc(OC)c(=O)cc1CSc1nc(C)cc(C)n1 | -13.1
31 | O=C1CCCN1CCN1CC=C(c2cnn(C3CCS(=O)(=O)C3)c2)CC1 (stereo not given) | -10.3
32 | O=C(c1ncccc1O)N1CCN(Cc2ccco2)C(CCO)C1 (stereo not given) | -11.1
33 | CN(CC1COc2ccccc2O1)C(=O)C1=NN(C)C(=O)CC1 (stereo not given) | 8.57
34 | Cn1ccnc1NC[C@@H]1CCC[C@@H]2CN(Cc3cccnc3)C[C@@H]21 | 14.5
35 | C[C@H](NC(=O)C1(N(C)Cc2ccccc2)Cc2ccccc2C1)C(N)=O | -2.36
36 | CN(C)c1nc2c(c(N3CCCC4(CC3)CNC(=O)O4)n1)CCCC2 (stereo not given) | -1.83
37 | CC(C)CCc1noc(CN2CCCN(C(=O)c3ccco3)CC2)n1 | -0.918
38 | O=C(c1cnn2c(-c3ccco3)ccnc12)N1CCCCCC1 | -8.53
39 | COCCOCC(=O)N1C[C@@H]2CC[C@H](Oc3ccccc3F)[C@@H]2C1 | 12.1
40 | O=C(CC1CC1)N(Cc1cccnc1)CC1CCN(C2CCCC2)CC1 | -1.09
41 | COc1ccc(C(=O)N2CCCC(NC(=O)C(C)C)C2)c(O)c1 (stereo not given) | 2.73
42 | CN(C(=O)Cc1ccc2c(c1)OCCO2)C1CCCCC1 | -1.71
43 | CN1CCN(C[C@H]2OC[C@@H]3CCN(C(=O)c4cnccn4)C[C@@H]32)CC1 | -2.22
44 | Cn1c(=O)[nH]c(=O)n2c(CC(=O)NCc3ccccc3)cnc12 | -12.3
45 | CCC1CN(C(=O)c2ccccc2C(C)=O)CCN1C(C)C (stereo not given) | -4.04
46 | CCOc1cccc(CNc2cccc(C(=O)OC)c2)c1O | -19.3
47 | COCCc1noc(CN2CCCC2c2c(C)nn(C)c2OC)n1 (stereo not given) | -3.49
48 | O=c1cccnn1CC1CN(Cc2ccsc2)Cc2nccn2C1 (stereo not given) | 0.993
49 | O=C1OCCN1c1cccc(CNS(=O)(=O)Cc2ccc(F)cc2)c1 | -6.39
50 | Cc1nc2n(n1)CC(NCc1nc(-c3ccccn3)no1)CC2 (stereo not given) | -5.58
51 | Cc1nn(C)c(N(C)C)c1CNCc1ccnn1C | -5.03
52 | Cc1ncsc1C(=O)N1CCCC(c2nccn2Cc2cscn2)C1 (stereo not given) | -5.99
53 | OC[C@@H]1CN2CCN(c3ccccn3)C[C@@H]2[C@H]1c1ccccc1 | -7.31
54 | COCCCN(C)[C@@H]1c2ccccc2C2(CCNCC2)[C@H]1O | -9.86

Row | SMILES | cytotoxicity at 70.5 h [%]
55 | COCC(=O)NC[C@]1(O)CN(Cc2ccc3c(c2)OCCO3)C[C@H]1O | -12.9
56 | NC(=O)c1ccc(OCC(=O)NS(=O)(=O)c2ccc3c(c2)CCC3)cc1 | -2.69
57 | CCn1cc(C(=O)NCC(OC)c2cccc(Cl)c2)cn1 (stereo not given) | -2.35
58 | O=C(c1ccc(F)cc1)N1CCN2C[C@H](OCc3cccnc3)C[C@H]2C1 | -11
59 | COCCN(C(=O)c1ccsc1)c1ccc(C#N)cc1 | -3.69
60 | CCOCC1CN(C(=O)COc2ccccc2)Cc2cn(C)nc21 (stereo not given) | -4
61 | Cc1nnc(N2C[C@H](C(=O)NCC3CC3)[C@@H]3CCO[C@@H]3C2)s1 | -4
62 | CC[C@H]1N(CC2CCC2)CCC[C@]12CCC(=O)N2Cc1ccncc1 | -5.93
63 | Cc1noc(C)c1CCC(=O)N1CCOCC1CC(=O)N1CCCC1 (stereo not given) | 1.48
64 | CN(Cc1ccc([S+](C)[O-])cc1)c1ccc(C(F)(F)F)cn1 (stereo not given) | -4.29
65 | Nc1nc2c(c(N3CCCC3)n1)CCN(Cc1ccccn1)CC2 | 8.7
66 | CCNC(=O)C(C)NC(=O)Nc1ccccc1Cl (stereo not given) | -6.58
67 | FC(F)(F)Cn1ccnc1CNCCn1cccn1 | -6.92
68 | CCCn1nc(C)c(CNC(=O)c2snnc2C)c1C | -13.1
69 | c1cnc(NCc2cncc3c2CCN(Cc2ccoc2)C3)nc1 | -8.36
70 | CCC(=O)Nc1cc(Cl)ccc1C(=O)N(C)Cc1noc(CC)n1 | -5.2
71 | CN(C[C@@H]1CCC[C@@H]2CN(Cc3cccnc3)C[C@@H]21)C1CC1 | -1.32
72 | CC1(C)CCN(S(=O)(=O)N2CCCC(c3cccc(C(=O)O)c3)C2)CC1 (stereo not given) | -10.5
73 | O=C(c1ccco1)N1CCC2(CC1)C(=O)NCCN2CC1CC1 | -26.8
74 | Cn1nccc1CCC(=O)NC1CCCN(c2ccccn2)C1 (stereo not given) | -1.31
75 | Cc1cc2n(n1)CC(CNCc1ccccc1-n1cccn1)CN2 (stereo not given) | -4.8
76 | c1cncc(CN2Cc3nccn3CC(Cn3cccn3)C2)c1 (stereo not given) | -6.13
77 | CCc1cnc(N2C[C@H]3CN(Cc4csc(C)n4)C(=O)[C@H]3C2)nc1 | -8.61
78 | CN(Cc1nc(CS(C)(=O)=O)no1)c1ccccc1 | -12.6
79 | COc1cccc(N2CCN(Cc3cc(C)cc(F)c3)CC2=O)c1 | -3.94
80 | O=C(CN1C(=O)CCC1=O)N1CCC(CSCc2ccco2)CC1 | -4.52
